Assay results from publication PMC9122626 (2020).

Test system: human telomeric G4 DNA, dAGGG(TTAGGG)3 (DNA, G4) AGGGTTAGGGTTAGGGTTAGGG
Assay: CD melting (295 nm)
Conditions: Na+ 100 mM; peptide concentration not given

N[C@@H](Cc1ccc(O)cc1)C(=O)N[C@@H](CCC(=O)N[C@@H](CCC(=O)O)C(=O)O)C(=O)N[C@@H](CCC(=O)O)C(=O)O (racemic)
ΔTm: ~ 3 °C
